Earlier results in PubChem BioAssay AID1259409 (Chemical Carcinogenesis Research Information System (CCRIS), 2018).

Tested on: rodent chemically induced tumor inhibition, incidence and multiplicity
Experiment: CCRIS tumor inhibitor studies
Settings: Dose [Inhibitor]: 0
Text: The CCRIS database contains chemical records with carcinogenicity, mutagenicity, tumor promotion, and tumor inhibition test results. It was developed by the National Cancer Institute (NCI). Data are derived from studies cited in primary journals, current awareness tools, NCI reports, and other sources. Test results have been reviewed by experts in carcinogenesis and mutagenesis.
CCRIS provides historical information from the years 1985 - 2011. It is no longer updated.
This is an archive assay for CCRIS tumor inhibitor studies.

## N[C@@H](Cc1ccccc1)C(=O)O
Carcinogen: N-METHYL-N'-NITRO-N-NITROSOGUANIDINE, 70-25-7, 6% IN DIET FOR 26 WK ADMINISTERED POST CARCINOGEN DOSE (STUDY DURATION: 52 WK ), Route [Inhibitor]: ORAL, Species: RAT, Strain/Sex: WISTAR/MALE, Target Tissue: Type of Lesion: GLANDULAR STOMACH: ADENOCARCINOMA, Dose [Carcinogen]: 50 UG/ML DRINKING WATER FOR 26 WK
  tumour outcome (control, treated, inhibition, significance): 18/25 (72%), 9/25 (36%), 50%, not calculated

## C[Se+](C)CC(=O)[O-]
Carcinogen: 7,12-DIMETHYLBENZ[A]ANTHRACENE, 57-97-6, 0.000025 MOL/KG DIET BEGINNING 2 WK PRIOR TO CARCINOGEN AND CONTINUED FOR STUDY DURATION (STUDY DURATION: 25 WK), Route [Inhibitor]: ORAL, Species: RAT, Strain/Sex: CD-1/FEMALE, Target Tissue: Type of Lesion: MAMMARY GLAND: ADENOCARCINOMA, Dose [Carcinogen]: 10 MG ONCE, Promoter: NONE USED
  tumour outcome (control, treated, inhibition, significance): 20/25 (80%), 11/25 (44%), 45%, p<0.05

## COC1=CC(=O)[C@]2(C=C1OC)OC[C@H]1Oc3c(ccc4c3C=CC(C)(C)O4)C(=O)[C@H]12
Carcinogen: 7,12-DIMETHYLBENZ[A]ANTHRACENE, 57-97-6, 85 NMOL 2/WK BEGINNING 1 WK POST CARCINOGEN DOSE (STUDY DURATION: 20 WK), Route [Inhibitor]: DERMAL, Species: MOUSE, Strain/Sex: ICR/FEMALE, Target Tissue: Type of Lesion: SKIN: PAPILLOMA, Dose [Carcinogen]: 390 NMOL, Promoter: 12-O-TETRADECANOYLPHORBOL-13-ACETATE, 16561-29-8
  tumour outcome (control, treated, inhibition, significance): 100%, 20%, 80%, not calculated

## O=C(/C=C/c1ccc(O)cc1)c1ccc(O)cc1O
Carcinogen: 7,12-DIMETHYLBENZ[A]ANTHRACENE, 57-97-6, 0.4 UMOL 2/WK FOR 18 WK BEGINNING 10 D POST CARCINOGEN DOSE (STUDY DURATION: 20 WK), Route [Inhibitor]: DERMAL, Species: MOUSE, Strain/Sex: CD-1/FEMALE, Target Tissue: Type of Lesion: SKIN: PAPILLOMA, Dose [Carcinogen]: 200 NMOL ONCE, Promoter: 12-O-TETRADECANOYLPHORBOL-13-ACETATE, 16561-29-8
  tumour outcome (control, treated, inhibition, significance): 85%, 90%, -6%, not significant
Carcinogen: 7,12-DIMETHYLBENZ[A]ANTHRACENE, 57-97-6, 10 UMOL 2/WK FOR 18 WK BEGINNING 10 D POST CARCINOGEN DOSE (STUDY DURATION: 20 WK), Route [Inhibitor]: DERMAL, Species: MOUSE, Strain/Sex: CD-1/FEMALE, Target Tissue: Type of Lesion: SKIN: PAPILLOMA, Dose [Carcinogen]: 200 NMOL ONCE, Promoter: 12-O-TETRADECANOYLPHORBOL-13-ACETATE, 16561-29-8
  tumour outcome (control, treated, inhibition, significance): 85%, 50%, 41%, p<0.05
Carcinogen: 7,12-DIMETHYLBENZ[A]ANTHRACENE, 57-97-6, 10 UMOL 2/WK FOR 21 WK BEGINNING 10 D POST CARCINOGEN DOSE (STUDY DURATION: 23 WK), Route [Inhibitor]: DERMAL, Species: MOUSE, Strain/Sex: CD-1/FEMALE, Target Tissue: Type of Lesion: SKIN: PAPILLOMA, Dose [Carcinogen]: 200 NMOL ONCE, Promoter: 12-O-TETRADECANOYLPHORBOL-13-ACETATE, 16561-29-8
  tumour outcome (control, treated, inhibition, significance): 90%, 0%, 100%, p<0.05
Carcinogen: 7,12-DIMETHYLBENZ[A]ANTHRACENE, 57-97-6, 15 UMOL 2/WK FOR 18 WK BEGINNING 10 D POST CARCINOGEN DOSE (STUDY DURATION: 20 WK), Route [Inhibitor]: DERMAL, Species: MOUSE, Strain/Sex: CD-1/FEMALE, Target Tissue: Type of Lesion: SKIN: PAPILLOMA, Dose [Carcinogen]: 200 NMOL ONCE, Promoter: 12-O-TETRADECANOYLPHORBOL-13-ACETATE, 16561-29-8
  tumour outcome (control, treated, inhibition, significance): 85%, 5%, 95%, p<0.05
